According to PubChem BioAssay AID651940 (Sanford-Burnham Center for Chemical Genomics, 2012):
The source made the active and inactive calls.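 The calls were made as follows: active = IC50 below 50 µM, and active in both the human and murine receptor assays; inactive = the rest.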

Target: C-X-C chemokine receptor type 6 (Mus musculus) (UniProt Q9EQ16)
Assay: antagonism of murine CXCR6 beta-arrestin recruitment – cell-based, mouse ortholog, CHO-K1, luminescence, selectivity assay for human CXCR6 antagonist project, SAR follow-up (AID 651940)
Settings: CHO-K1 mCXCR6 beta-arrestin PathHunter

C-X-C chemokine receptor type 6 (Mus musculus), sequence (Q9EQ16 whole entry, looked up): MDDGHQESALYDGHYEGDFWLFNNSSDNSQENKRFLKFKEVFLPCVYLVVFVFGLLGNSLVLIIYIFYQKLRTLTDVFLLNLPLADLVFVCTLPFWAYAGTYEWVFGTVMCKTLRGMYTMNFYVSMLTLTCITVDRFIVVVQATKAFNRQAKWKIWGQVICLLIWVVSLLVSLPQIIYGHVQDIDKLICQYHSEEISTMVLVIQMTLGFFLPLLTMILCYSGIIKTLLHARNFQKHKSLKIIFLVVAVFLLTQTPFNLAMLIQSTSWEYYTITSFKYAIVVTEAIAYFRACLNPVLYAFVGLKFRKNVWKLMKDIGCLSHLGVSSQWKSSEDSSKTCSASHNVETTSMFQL

## COc1cc(C(=O)NC2CC3CCCC(C2)N3CC(=O)Nc2ccccc2)cc(OC)c1OC (configuration not stated)
  IC50: > 79 µM (inactive)

## COc1ccc(CN2C3CCCC2CC(NC(=O)c2cc(OC)c(OC)c(OC)c2)C3)cc1 (configuration not stated)
  IC50: > 79 µM (inactive)

## COc1ccc(NC(=O)CN2C3CCCC2CC(NC(=O)c2cc(OC)c(OC)c(OC)c2)C3)cc1 (configuration not stated)
  IC50: > 79 µM (inactive)

## COc1ccccc1NC(=O)CN1C2CCCC1CC(NC(=O)c1cc(OC)c(OC)c(OC)c1)C2 (configuration not stated)
  IC50: > 79 µM (inactive)

## COc1cc(C(=O)NC2CC3CCCC(C2)N3CC(=O)Nc2ccc(Cl)cc2)cc(OC)c1OC (configuration not stated)
  IC50: > 79 µM (inactive)

## COc1cc(C(=O)NC2CC3CCCC(C2)N3CC(=O)Nc2ccc(C)cc2)cc(OC)c1OC (configuration not stated)
  IC50: inactive

## COc1cc(C(=O)NC2CC3CCCC(C2)N3CC(=O)Nc2ccc(F)cc2)cc(OC)c1OC (configuration not stated)
  IC50: > 79 µM (inactive)
